# Measurements reported in patent US11059778B2, “Cannabinoid receptor CB2 ligand 4-(aminomethyl)-N, N-dialkylanilines” (UNIVERSITY OF PITTSBURGH—OF THE COMMONWEALTH SYSTEM OF …, priority 2015, dated 2021).
# “Also recorded” adds a separate entry of the source.
# Experiments:
# [1] = target: T1, human CB2 receptors (Homo sapiens, UniProt P34972); test: [3H]CP-55,940 radioligand competition binding assay, CB2; details: for Ki: CHO cell membranes, [3H]CP-55,940 displacement
# T1 construct: expressed in transfected cells
# [2] = target: T2, human CB1 receptors (Homo sapiens, UniProt P21554); test: [3H]CP-55,940 radioligand competition binding assay, CB1; details: CHO cell membranes, [3H]CP-55,940 displacement
# T2 construct: expressed in transfected cells
# [3] = system: RANKL-induced osteoclast differentiation of C57BL/6 mouse bone marrow cells; test: In-vitro osteoclast formation assay (RANKL-induced, TRAP staining); type: cell-based; details: for inhibition at 10 µM: Mus musculus, Osteoclast, read-out: inhibition rates of osteoclast formation; for effect on RANKL-induced osteoclast formation (in words): RANKL 100 ng/mL, M-CSF 30 ng/mL, concentration series up to 10 μM, FIG. 5
# Method: FIGS. 5A and 5B relate to […]. Anti-osteoclastogenesis activity of the synthesized CB2 ligands. […] FIG. 5B: BM cells were seeded at a density of 2×10^5 cells/well in 96-well plates and treated with or without RANKL (100 ng/mL) and M-CSF (30 ng/mL). CB2 compounds were added at the indicated concentrations for 10 days and stained for TRAP expression. Data is the mean of three experiments carried out in triplicates. (B) Microscopic photographs of cells for compound 15 (magnification 100×).
# Bone marrow (BM) cells were obtained from the tibia and femur of 4- to 6-week old C57BL/6 mice. To examine the effects of our selective CB2 ligands, BM cells were seeded at 2×10^5 cells/well in 96-well plates in 100 μIL/well Alpha-MEM media (Gibco Laboratories, Grand Island, N.Y.) containing 15% fetal bovine serum (FBS) (Gibco Laboratories, Grand Island, N.Y.), 30 ng/mL M-CSF (R&D Systems, USA), and 100 ng/mL RANKL (ProsPec, East Brunswick, N.J.). Plates were cultured for 7-10 days. Half media was changed every third day with or without CB2 ligands. At the end of the experiment, cells were fixed and stained with tartrate-resistant acid […] (TRAP) (Sigma-Aldrich, USA), according to manufacturer's protocol. TRAP-positive cells with ≥3 nuclei were counted as osteoclasts ((a) Feng, R., et al., SDX-308, a nonsteroidal anti-inflammatory agent, inhibits NF-kappaB activity, resulting in strong inhibition of osteoclast formation/activity and multiple myeloma cell growth. Blood 2007, 109 (5), 2130-8; (b) Yu, M., et al., Curcumol suppresses RANKL-induced osteoclast formation by attenuating the JNK signaling pathway. Biochem Biophys Res Commun 2014, 447 (2), 364-70; (c) Feng, R., et al., KD5170, a novel mercaptoketone-based histone deacetylase inhibitor, exerts antimyeloma effects by DNA damage and mitochondrial signaling. Mol Cancer Ther 2008, 7 (6), 1494-505.).
# T1 sequence (P34972 whole entry): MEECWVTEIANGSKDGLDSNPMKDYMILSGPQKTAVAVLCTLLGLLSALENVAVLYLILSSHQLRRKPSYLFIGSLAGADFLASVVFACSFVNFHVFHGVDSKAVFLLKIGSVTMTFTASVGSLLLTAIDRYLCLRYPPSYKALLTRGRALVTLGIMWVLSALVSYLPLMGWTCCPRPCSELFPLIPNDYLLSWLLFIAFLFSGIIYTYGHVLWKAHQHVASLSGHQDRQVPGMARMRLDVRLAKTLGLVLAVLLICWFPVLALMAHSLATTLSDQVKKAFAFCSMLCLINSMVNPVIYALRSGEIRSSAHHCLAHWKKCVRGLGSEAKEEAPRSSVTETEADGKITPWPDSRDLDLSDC
# T2 sequence (P21554 whole entry): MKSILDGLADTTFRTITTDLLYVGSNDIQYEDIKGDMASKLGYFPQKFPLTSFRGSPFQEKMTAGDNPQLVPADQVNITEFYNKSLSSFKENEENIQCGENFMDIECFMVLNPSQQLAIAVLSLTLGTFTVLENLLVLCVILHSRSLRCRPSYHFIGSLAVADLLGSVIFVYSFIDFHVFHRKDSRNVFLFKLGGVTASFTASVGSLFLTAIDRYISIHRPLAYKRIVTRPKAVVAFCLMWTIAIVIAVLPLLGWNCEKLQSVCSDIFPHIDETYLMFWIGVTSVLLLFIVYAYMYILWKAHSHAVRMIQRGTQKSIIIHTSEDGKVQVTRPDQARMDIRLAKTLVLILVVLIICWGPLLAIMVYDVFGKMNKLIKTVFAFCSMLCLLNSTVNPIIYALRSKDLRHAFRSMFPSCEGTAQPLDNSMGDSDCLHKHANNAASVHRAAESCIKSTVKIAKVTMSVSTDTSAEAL
"SI: selectivity index for CB2, calculated as Ki(CB1)/Ki(CB2) ratio [1]",Ki [1],Ki [2],Compound,inhibition at 10 µM [3],effect on RANKL-induced osteoclast formation (in words) [3]
9,242 nM,2290 nM,"CCN(CC)c1ccc(CN(Cc2cc(OC)c(OC)c(OC)c2)S(=O)(=O)c2ccc(C=O)cc2)cc1 [Compound 18, N-(4-(diethylamino)benzyl)-4-formyl-N-(3,4,5-trimethoxybenzyl)benzenesulfonamide]",> 95%,concentration-dependent inhibition of osteoclast formation; also recorded: inhibited the RANKL-induced osteoclast differentiation in a dose-dependent manner
31,107 nM,3280 nM,"CCN(CC)c1ccc(CN(Cc2cc(OC)c(OC)c(OC)c2)C(=O)c2cccs2)cc1 [Compound 11, N-(4-(diethylamino)benzyl)-N-(3,4,5-trimethoxybenzyl)thiophene-2-carboxamide]",,induction of osteoclast formation at higher doses; also recorded: low effect in inducing the osteoclast formation at higher doses

Compound,"SI: selectivity index for CB2, calculated as Ki(CB1)/Ki(CB2) ratio [1]",Ki [1],Ki [2],inhibition at 10 µM [3],effect on RANKL-induced osteoclast formation (in words) [3]
"CCN(CC)c1ccc(CN(Cc2cc(OC)c(OC)c(OC)c2)S(=O)(=O)/C=C/c2ccccc2)cc1 [Compound 15, (E)-N-(4-(diethylamino)benzyl)-2-phenyl-N-(3,4,5-trimethoxybenzyl)ethene-1-sulfonamidebenzenesulfonamide]",145,138 nM,> 20000 nM,> 95%,concentration-dependent inhibition of osteoclast formation; also recorded: inhibited the RANKL-induced osteoclast differentiation in a dose-dependent manner
